Data on 18 compounds can be found in patent publication US9884836B2, “2-substituted-5-hydroxy-4H-chromen-4-ones as novel ligands for the serotonin receptor 2B (5-HT2B)” (VIRGINIA COMMONWEALTH UNIVERSITY, priority 2014, dated 2018).

Like-named read-outs stand apart in the source and are kept apart here.

For one experiment, the target named is 5-HT2A (Homo sapiens, UniProt P28223). The experiment in a line: Primary screening: inhibition of radioligand binding at 5-HT2A (NIMH PDSP).
Experiment [1] has as its target T1, 5-HT2B receptor (Homo sapiens, UniProt P41595). The experiment in a line: Primary screening: inhibition of radioligand binding at 5-HT2B (NIMH PDSP).
The target in experiment [2] is T1, 5-HT2B receptor. The experiment in a line: Binding affinity (pKi) by competitive inhibition of [3H]LSD at 5-HT2B. To be noted: for Ki: pKi at 5-HT2B.
Experiment [3] deals with T2, 5-HT2C (Homo sapiens, UniProt P28335).
T2 sequence (P28335 33-458): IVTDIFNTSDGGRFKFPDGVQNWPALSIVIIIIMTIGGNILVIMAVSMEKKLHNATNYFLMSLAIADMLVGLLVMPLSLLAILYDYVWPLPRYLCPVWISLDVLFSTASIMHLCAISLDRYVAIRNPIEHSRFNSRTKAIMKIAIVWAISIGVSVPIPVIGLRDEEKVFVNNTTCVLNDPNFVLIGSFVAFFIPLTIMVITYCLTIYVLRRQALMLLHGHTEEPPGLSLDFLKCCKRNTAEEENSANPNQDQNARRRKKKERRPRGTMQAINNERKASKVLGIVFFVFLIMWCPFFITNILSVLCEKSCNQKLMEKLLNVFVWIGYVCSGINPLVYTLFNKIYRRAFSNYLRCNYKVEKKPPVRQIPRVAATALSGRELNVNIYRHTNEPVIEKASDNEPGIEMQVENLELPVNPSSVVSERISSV
The experiment in a line: Primary screening: inhibition of radioligand binding at 5-HT2C (NIMH PDSP).

Experiment [4] concerns the target T1, 5-HT2B receptor. The experiment in a line: Calcium mobilization assay in Flp-In HEK cells (agonist/antagonist functional activity). To be noted: compound at 10 μM. A general note: Calcium assays in cells follow changes in intracellular calcium, usually with a dye or a luminescent sensor.
Experiment [5] addresses T2, 5-HT2C. The experiment in a line: Binding affinity (pKi) at 5-HT2C.
Setting [6] is: read-out: % Inhibition of radioligand binding 5-HT2A.
Setting [7] is: read-out: % Inhibition of radioligand binding 5-HT2B.
The mark [8] stands for this setting: read-out: inhibitory activity at 5-HT2B.
Where [9] appears, read: read-out: % Inhibition of radioligand binding 5-HT2C.

Sequence of 5-HT2A (P28223 whole entry, species assumed): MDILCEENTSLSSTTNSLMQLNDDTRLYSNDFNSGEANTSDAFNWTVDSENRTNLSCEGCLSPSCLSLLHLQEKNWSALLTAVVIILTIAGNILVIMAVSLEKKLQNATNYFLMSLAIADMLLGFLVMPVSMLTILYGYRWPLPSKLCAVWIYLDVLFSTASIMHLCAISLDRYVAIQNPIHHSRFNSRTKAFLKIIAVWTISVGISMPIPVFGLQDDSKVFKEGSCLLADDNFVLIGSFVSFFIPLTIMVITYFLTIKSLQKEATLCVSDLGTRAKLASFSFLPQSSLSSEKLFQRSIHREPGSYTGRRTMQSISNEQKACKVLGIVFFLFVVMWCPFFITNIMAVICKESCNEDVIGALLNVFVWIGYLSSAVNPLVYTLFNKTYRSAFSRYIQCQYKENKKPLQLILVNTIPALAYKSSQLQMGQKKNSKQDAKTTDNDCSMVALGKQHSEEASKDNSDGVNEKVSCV
T1 sequence (P41595 whole entry): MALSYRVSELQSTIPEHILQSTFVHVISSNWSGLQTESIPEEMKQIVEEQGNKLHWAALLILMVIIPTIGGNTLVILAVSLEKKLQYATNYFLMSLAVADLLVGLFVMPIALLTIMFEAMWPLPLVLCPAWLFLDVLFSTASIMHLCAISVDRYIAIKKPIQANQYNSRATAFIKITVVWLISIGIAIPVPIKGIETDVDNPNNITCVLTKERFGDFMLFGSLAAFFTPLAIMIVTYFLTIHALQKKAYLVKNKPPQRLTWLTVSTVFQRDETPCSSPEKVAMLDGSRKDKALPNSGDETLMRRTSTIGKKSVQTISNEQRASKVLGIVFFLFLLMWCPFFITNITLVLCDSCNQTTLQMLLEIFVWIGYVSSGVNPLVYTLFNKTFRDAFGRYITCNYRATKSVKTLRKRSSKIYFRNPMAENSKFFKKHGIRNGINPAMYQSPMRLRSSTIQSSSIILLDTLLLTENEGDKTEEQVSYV

For orientation: Ki means the equilibrium dissociation constant of an inhibitor or competing ligand from its target. A low value points to tighter binding. Regarding `O=c1cc(COc2ccccc2)oc2cccc(O)c12` [Compound 22a, 5-hydroxy-2-(phenoxymethyl)-4H-chromen-4-one], the inhibition at 10 µM at 5-HT2A (read-out: % Inhibition 5-HT2A) was 0.2%; on 5-HT2A (setting [6]), 0.2%; at 5-HT2B receptor [1] (read-out: % Inhibition 5-HT2B), 50%; at 5-HT2B receptor [1] (setting [7]) it was 50%; on 5-HT2B receptor [1] (setting [8]), 50%; at 5-HT2C [3] (read-out: % Inhibition 5-HT2C), 7.8%. Moreover, at 5-HT2C [3] (setting [9]), the inhibition at 10 µM stood at 7%. Further, the Ki at 5-HT2B receptor [2] and on 5-HT2B receptor [2] (Table 7) was > 10000 nM each time.
Turning to `O=c1cc(CCc2ccccc2O)oc2cccc(O)c12` [Compound 22b, 5-hydroxy-2-(2-hydroxyphenethyl)-4H-chromen-4-one], the inhibition at 10 µM turned out to be 24.3% on 5-HT2A (setting [6]), 12.8% on 5-HT2B receptor [1] (setting [7]) and 23.8% on 5-HT2C [3] (setting [9]).
As usually defined, the pKi is −log10 of the Ki, conventionally taken in molar units. As to `O=c1cc(CCc2cccc(O)c2)oc2cccc(O)c12` [Compound 22c, 5-Hydroxy-2-(3′-hydroxy-2-phenylethyl)chromone], the inhibition at 10 µM was 39% on 5-HT2A (setting [6]), 76.3% on 5-HT2B receptor [1] (setting [7]), 76% at 5-HT2B receptor [1] (setting [8]) and 30.4% on 5-HT2C [3] (setting [9]). The “pKi at 5-HT2B” value on 5-HT2B receptor [2] was 5.9. The Ki at 5-HT2B receptor [2] (Table 7) was 1290 nM.
In the case of `O=c1cc(CCc2cccs2)oc2cccc(O)c12` [Compound 22e, 5-hydroxy-2-(2-(thiophen-2-yl)ethyl)-4H-chromen-4-one], the inhibition at 10 µM on 5-HT2A (read-out: % Inhibition 5-HT2A) was 1.4%; on 5-HT2A (setting [6]), 1.4%; on 5-HT2B receptor [1] (read-out: % Inhibition 5-HT2B) it was 74.8%; at 5-HT2B receptor [1] (setting [7]), 74.8%; on 5-HT2C [3] (read-out: % Inhibition 5-HT2C) it was 19.6%; on 5-HT2C [3] (setting [9]), 19.6%. For the same compound, the Ki was 1260 nM at 5-HT2B receptor [2] and 1050 nM on 5-HT2B receptor [2] (Table 7).
For `O=c1cc(CCc2ccco2)oc2cccc(O)c12` [Compound 22f, 5-Hydroxy-2-(2-(furan-2-yl)ethyl)chromone], the inhibition at 10 µM at 5-HT2A (setting [6]) amounted to 12.4%; at 5-HT2B receptor [1] (setting [7]), 68.8%; on 5-HT2C [3] (setting [9]), 24.2%. Moreover, the “pKi at 5-HT2B” value at 5-HT2B receptor [2] amounted to 5.7. This compound had an inhibition constant (Ki) on 5-HT2B receptor [2] (Table 7) of 1820 nM.
`O=c1cc(Cc2ccccc2)oc2cccc(O)c12` [Compound 22g, 2-benzyl-5-hydroxy-4H-chromen-4-one]: the inhibition at 10 µM is 1.4% at 5-HT2A (read-out: % Inhibition 5-HT2A); 1.4% on 5-HT2A (setting [6]); 30.6% on 5-HT2B receptor [1] (read-out: % Inhibition 5-HT2B); 30.6% on 5-HT2B receptor [1] (setting [7]); 24.8% at 5-HT2C [3] (read-out: % Inhibition 5-HT2C); 24.8% at 5-HT2C [3] (setting [9]).
With `O=c1cc(CCCc2ccccc2)oc2cccc(O)c12` [Compound 22h, 5-hydroxy-2-(3-phenylpropyl)-4H-chromen-4-one], on 5-HT2B receptor [4] (challenged with an EC50 dose (1.6 nM) of 5-HT), the antagonist activity is 20.5±0.5 % inhibition. The agonist activity on 5-HT2B receptor [4] (compared to 5-HT) is reported as 0.23±0.2 % of the maximal response. The inhibition at 10 µM on 5-HT2A (read-out: % Inhibition 5-HT2A) amounted to 5.4%; at 5-HT2A (setting [6]), 5.4%; on 5-HT2B receptor [1] (read-out: % Inhibition 5-HT2B), 70.4%; at 5-HT2B receptor [1] (setting [7]), 70.4%; at 5-HT2C [3] (read-out: % Inhibition 5-HT2C) it was 7.9%; on 5-HT2C [3] (setting [9]) it was 7.9%. Moreover, on 5-HT2B receptor [2], the negative-log Ki (pKi) at 5-HT2B worked out at 6.6. At 5-HT2B receptor [2] (Table 7), the Ki is 240 nM.
In the case of `O=c1cc(CCCCc2ccccc2)oc2cccc(O)c12` [Compound 22i, 5-hydroxy-2-(4-phenylbutyl)-4H-chromen-4-one], the inhibition at 10 µM was 5.7% on 5-HT2A (read-out: % Inhibition 5-HT2A); 5.7% on 5-HT2A (setting [6]); 45.2% on 5-HT2B receptor [1] (read-out: % Inhibition 5-HT2B); 45.2% at 5-HT2B receptor [1] (setting [7]); 14.7% on 5-HT2C [3] (read-out: % Inhibition 5-HT2C); 14.7% on 5-HT2C [3] (setting [9]).
As to `O=c1cc(COCc2ccccc2)oc2cccc(O)c12` [Compound 22j, 5-hydroxy-2-((benzyloxy)methyl)chromone], the inhibition at 10 µM on 5-HT2A (setting [6]) was 3.2%; on 5-HT2B receptor [1] (setting [7]) it was 77.7%; on 5-HT2B receptor [1] (setting [8]) it was 78%; on 5-HT2C [3] (setting [9]) it was 42.1%. Further, at 5-HT2B receptor [2] (Table 7), the “pKi at 5-HT2B” value worked out at 5.8 ± 0.05. Besides, the “fold decrease in 5-HT2B affinity compared to 5-HPPC (22h)” value on 5-HT2B receptor [2] (relative to 5-HPPC) turned out to be 6 fold.
Turning to `O=c1cc(CCc2ccccc2)oc2cc(O)ccc12` [Compound 22k, 7-hydroxy-2-phenethyl-4H-chromen-4-one], the inhibition at 10 µM stood at 35.5% at 5-HT2A (setting [6]), 34.2% on 5-HT2B receptor [1] (setting [7]) and 33.7% on 5-HT2C [3] (setting [9]).
On to `O=c1cc(CC(O)c2ccccc2)oc2cc(O)ccc12` (stereo not drawn) [Compound 22l, 7-Hydroxy-2-(2′-hydroxy-2-phenylethyl)chromone], for which the figures for the inhibition at 10 µM on 5-HT2A (setting [6]), on 5-HT2B receptor [1] (setting [7]) and at 5-HT2C [3] (setting [9]) were 47.9%, 16.6% and 44%, respectively.
Taken in the same sequence, the figures for `O=c1cc(CCc2cccc(O)c2)oc2cc(O)ccc12` [Compound 22m, 7-Hydroxy-2-(3′-hydroxy-2-phenylethyl)chromone] were 23.2%, 25.3% and 0%.
As to `O=c1cc(CCc2ccc(O)cc2)oc2cc(O)ccc12` [Compound 22n, 7-Hydroxy-2-(4′-hydroxy-2-phenylethyl)chromone], the inhibition at 10 µM is 33.3% on 5-HT2A (setting [6]), 40.8% at 5-HT2B receptor [1] (setting [7]), 53.1% at 5-HT2C [3] (setting [9]) and 53% at 5-HT2C [3] (read-out: inhibitory activity at 5-HT2C). Also, the Ki on 5-HT2C [5] was 2510 nM; on 5-HT2C [5] (Table 7), 2450 nM.
Regarding `O=c1cc(COc2ccc3ccccc3c2)oc2cccc(O)c12` [Compound 22o, 5-hydroxy-2-((naphthalen-2-yloxy)methyl)chromone], the figures for the inhibition at 10 µM at 5-HT2A (setting [6]), at 5-HT2B receptor [1] (setting [7]) and at 5-HT2C [3] (setting [9]) were -3%, 2.9% and -0.7%, respectively.
In the same order, the values of `O=c1cc(COc2cccc3ccccc23)oc2cccc(O)c12` [Compound 22p, 5-hydroxy-2-((naphthalen-1-yloxy)methyl)chromone] are -1.1%, 11.8% and 0.7%.
With `O=c1cc(Cc2cccc3ccccc23)oc2cccc(O)c12` [Compound 22q, 5-hydroxy-2-(naphthalen-1-ylmethyl)chromone], the inhibition at 10 µM on 5-HT2A (setting [6]) was found to be 9.5%; on 5-HT2B receptor [1] (setting [7]), 17.4%; at 5-HT2C [3] (setting [9]), 2.1%.
`O=c1cc(Cc2cccs2)oc2cccc(O)c12` [Compound 22r, 5-hydroxy-2-(thiophen-2-ylmethyl)-4H-chromen-4-one]: the inhibition at 10 µM was -4.5% on 5-HT2A (read-out: % Inhibition 5-HT2A); -4.5% on 5-HT2A (setting [6]); 31.5% on 5-HT2B receptor [1] (read-out: % Inhibition 5-HT2B); 31.5% on 5-HT2B receptor [1] (setting [7]); 23.5% at 5-HT2C [3] (read-out: % Inhibition 5-HT2C); 23.5% on 5-HT2C [3] (setting [9]).
With `O=c1cc(COCCc2ccccc2)oc2cccc(O)c12` [Compound 22s, 5-hydroxy-2-(phenethoxymethyl)chromone], the figures for the inhibition at 10 µM on 5-HT2A (setting [6]), on 5-HT2B receptor [1] (setting [7]) and at 5-HT2C [3] (setting [9]) were 0.3%, 77.7% and 11.7%, respectively. For the same compound, the Ki at 5-HT2B receptor [2] (Table 7) was 1260 nM.
